Target: AM2 S31N (serine→asparagine mutation at residue 31 in the M2 protein) (Influenza A virus, UniProt P0DOF5, S31N)
Type: cell-based, influenza virus A/Udorn/72
Conditions: not given

| Structure (SMILES) | S31N OOcyte Inhibition at 100 uM (%) |
| --- | --- |
| c1ccc(-c2cc(CNC34CC5CC(CC(C5)C3)C4)on2)cc1 [Example 164a] | A (key: (A)=31-95%; (B)=0-30%) |
| Cc1oc(-c2cccs2)nc1CNC12CC3CC(CC(C3)C1)C2 [Example 145a, N-((5-methyl-2-(thiophen-2-yl)oxazol-4-yl)methyl)adamantan-1-amine] | B (key: (A)=31-95%; (B)=0-30%) |
| COc1ccc2nc(CN(Cc3nc4ccc(OC)cc4[nH]3)C34CC5CC(CC(C5)C3)C4)[nH]c2c1 [Example 201a, Adamantan-1-yl-bis-(6-methoxy-1H-benzoimidazol-2-ylmethyl)-amine] | B (key: (A)=31-95%; (B)=0-30%) |
| c1csc(-c2nc(CNC34CC5CC(CC(C5)C3)C4)no2)c1 [Example 146a, N-((5-(thiophen-2-yl)-1,2,4-oxadiazol-3-yl)methyl)adamantan-1-amine] | A (key: (A)=31-95%; (B)=0-30%) |
| Cc1ccc(-c2cc(CNC34CC5CC(CC(C5)C3)C4)no2)cc1 [Example 120a, N-((5-(p-tolyl)isoxazol-3-yl)methyl)adamantan-1-amine] | A (key: (A)=31-95%; (B)=0-30%) |
| Clc1cccc2cc(CNC34CC5CC(CC(C5)C3)C4)sc12 [Example 183a, Adamantan-1-yl-(7-chloro-benzo[b]thiophen-2-ylmethyl)-amine] | B (key: (A)=31-95%; (B)=0-30%) |
| c1ccc(C2=NOC(CNC34CC5CC(CC(C5)C3)C4)C2)cc1 (stereo not shown) [Example 167a, N-((3-phenyl-4,5-dihydroisoxazol-5-yl)methyl)adamantan-1-amine] | A (key: (A)=31-95%; (B)=0-30%) |
| Ic1ccc(CNC23CC4CC(CC(C4)C2)C3)s1 [Example 91a, N-((5-Iodothiophen-2-yl)methyl)adamantan-1-amine] | A (key: (A)=31-95%; (B)=0-30%) |
| OC12CC3CC(C1)CC(NCc1cc4sccc4s1)(C3)C2 [Example 192a, 3-[(Thieno[3,2-b]thiophen-2-ylmethyl)-amino]-adamantan-1-ol] | A (key: (A)=31-95%; (B)=0-30%) |
| c1ccc(-c2nc(CNC34CC5CC(CC(C5)C3)C4)cs2)cc1 [Example 132a, N-((2-phenylthiazol-4-yl)methyl)adamantan-1-amine] | B (key: (A)=31-95%; (B)=0-30%) |
| OC12CC3CC(C1)CC(NCc1cc(-c4ccccc4)on1)(C3)C2 [Example 194a, (1s,3r,5R,7S)-3-(((5-phenylisoxazol-3-yl)methyl)amino)adamantan-1-ol] | A (key: (A)=31-95%; (B)=0-30%) |
| Cc1cccc2nc(CNC34CC5CC(CC(C5)C3)C4)[nH]c12 [Example 184a, Adamantan-1-yl-(7-methyl-1H-benzoimidazol-2-ylmethyl)-amine] | A (key: (A)=31-95%; (B)=0-30%) |
| COC(=O)c1ccc(-c2ccc(CNC34CC5CC(CC(O)(C5)C3)C4)cc2)cc1 [Example 190a, 4′-[(3-Hydroxy-adamantan-1-ylamino)-methyl]-biphenyl-4-carboxylic acid methyl ester] | A (key: (A)=31-95%; (B)=0-30%) |
| Cn1c(CNC23CC4CC(CC(C4)C2)C3)nc2ccccc21 [Example 180a, Adamantan-1-yl-(1-methyl-1H-benzoimidazol-2-ylmethyl)-amine] | B (key: (A)=31-95%; (B)=0-30%) |
| c1cc(C2CC2)sc1CNC12CC3CC(CC(C3)C1)C2 [Example 108a, N-((5-cyclopropylthiophen-2-yl)methyl)adamantan-1-amine] | A (key: (A)=31-95%; (B)=0-30%) |
| c1csc(-c2cc(CNC34CC5CC(CC(C5)C3)C4)on2)c1 [Example 149a, N-((3-(thiophen-2-yl)isoxazol-5-yl)methyl)adamantan-1-amine] | A (key: (A)=31-95%; (B)=0-30%) |
| COc1ccc(-c2nc(CNC34CC5CC(CC(C5)C3)C4)no2)cc1 [Example 126a, N-((5-(4-methoxyphenyl)-1,2,4-oxadiazol-3-yl)methyl)adamantan-1-amine] | A (key: (A)=31-95%; (B)=0-30%) |

Same assay, conditions: pH 5.5

| Structure (SMILES) | S31N OOcyte Inhibition at 100 uM (%) |
| --- | --- |
| c1nc(C2CCCCC2)ncc1CNC12CC3CC(CC(C3)C1)C2 [Example 61b, N-((2-cyclohexylpyrimidin-5-yl)methyl)adamantan-1-amine] | A (key: (A)=31-95%; (B)=0-30%) |
| c1cc2[nH]c(CNC34CC5CC(CC(C5)C3)C4)cc2o1 [Example 78b, Adamantan-1-yl-(4H-furo[3,2-b]pyrrol-5-ylmethyl)-amine] | A (key: (A)=31-95%; (B)=0-30%) |
| Clc1ccccc1-c1ccc(CNC23CC4CC(CC(C4)C2)C3)nc1 [Example 72b, Adamantan-1-yl-[5-(2-chloro-phenyl)-pyridin-2-ylmethyl]-amine] | A (key: (A)=31-95%; (B)=0-30%) |
| c1nc(N2CCCC2)ncc1CNC12CC3CC(CC(C3)C1)C2 [Example 54b, N-((2-(pyrrolidin-1-yl)pyrimidin-5-yl)methyl)adamantan-1-amine] | A (key: (A)=31-95%; (B)=0-30%) |
| COc1cccc(-c2cc(CNC34CC5CC(CC(C5)C3)C4)no2)c1 [Example 39b, N-((5-(3-methoxyphenyl)isoxazol-3-yl)methyl)adamantan-1-amine] | A (key: (A)=31-95%; (B)=0-30%) |
| Oc1cc(Cl)ccc1CNC12CC3CC(CC(C3)C1)C2 [Example 9b, 2-((-Adamantan-1-ylamino)methyl)-5-chlorophenol] | A (key: (A)=31-95%; (B)=0-30%) |
| Oc1cc(I)ccc1CNC12CC3CC(CC(C3)C1)C2 [Example 2b] | A (key: (A)=31-95%; (B)=0-30%) |
| CCCc1cc(CNC23CC4CC(CC(C4)C2)C3)no1 [Example 26b, N-((5-propylisoxazol-3-yl)methyl)adamantan-1-amine] | A (key: (A)=31-95%; (B)=0-30%) |
| Nc1ncc(CNC23CC4CC(CC(C4)C2)C3)s1 [Example 19b] | B (key: (A)=31-95%; (B)=0-30%) |
| FC(F)(F)Oc1ccc(-c2cc(CNC34CC5CC(CC(C5)C3)C4)no2)cc1 [Example 36b, N-((5-(4-(trifluoromethoxy)phenyl)isoxazol-3-yl)methyl)adamantan-1-amine] | B (key: (A)=31-95%; (B)=0-30%) |
| COc1ccccc1-c1ccc(CNC23CC4CC(CC(C4)C2)C3)nc1 [Example 69b, Adamantan-1-yl-[5-(2-methoxy-phenyl)-pyridin-2-ylmethyl]-amine] | A (key: (A)=31-95%; (B)=0-30%) |
| COc1ccccc1-c1noc(CNC23CC4CC(CC(C4)C2)C3)n1 [Example 30b, N-((3-(2-methoxyphenyl)-1,2,4-oxadiazol-5-yl)methyl)adamantan-1-amine] | A (key: (A)=31-95%; (B)=0-30%) |
| Clc1ccc(CNC23CC4CC(CC(C4)C2)C3)nn1 [Example 70b, Adamantan-1-yl-(6-chloro-pyridazin-3-ylmethyl)-amine] | B (key: (A)=31-95%; (B)=0-30%) |
| COc1ccc(Cc2nc(CNC34CC5CC(CC(C5)C3)C4)no2)cc1OC [Example 28b, N-((5-(3,4-dimethoxybenzyl)-1,2,4-oxadiazol-3-yl)methyl)adamantan-1-amine] | A (key: (A)=31-95%; (B)=0-30%) |
| Cc1csc(CNC23CC4CC(CC(C4)C2)C3)n1 [Example 68b, Adamantan-1-yl-(4-methyl-thiazol-2-ylmethyl)-amine] | A (key: (A)=31-95%; (B)=0-30%) |
| CSC(C)(C)Cc1cc(CNC23CC4CC(CC(C4)C2)C3)no1 [Example 46b, N-((5-(2-methyl-2-(methylthio)propyl)isoxazol-3-yl)methyl)adamantan-1-amine] | A (key: (A)=31-95%; (B)=0-30%) |
| CSc1ccccc1-c1ccc(CNC23CC4CC(CC(C4)C2)C3)nc1 [Example 67b, Adamantan-1-yl-[5-(2-methylsulfanyl-phenyl)-pyridin-2-ylmethyl]-amine] | A (key: (A)=31-95%; (B)=0-30%) |
| Clc1nc(CNC23CC4CC(CC(C4)C2)C3)ns1 [Example 10b, N-((5-chloro-1,2,4-thiadiazol-3-yl)methyl)adamantan-1-amine] | A (key: (A)=31-95%; (B)=0-30%) |
| Cc1ncc(CNC23CC4CC(CC(C4)C2)C3)s1 [Example 16b, N-((2-methylthiazol-5-yl)methyl)adamantan-1-amine] | B (key: (A)=31-95%; (B)=0-30%) |
| c1cc2nc(CNC34CC5CC(CC(C5)C3)C4)sc2s1 [Example 77b, Adamantan-1-yl-thieno[3,2-d]thiazol-2-ylmethyl-amine] | A (key: (A)=31-95%; (B)=0-30%) |
| CSc1ccccc1-c1cnc(CNC23CC4CC(CC(C4)C2)C3)s1 [Example 76b, Adamantan-1-yl-[5-(2-methylsulfanyl-phenyl)-thiazol-2-ylmethyl]-amine] | A (key: (A)=31-95%; (B)=0-30%) |
| Brc1ccsc1CNC12CC3CC(CC(C3)C1)C2 [Example 47b, N-((3-Bromothiophen-2-yl)methyl)adamantan-1-amine] | B (key: (A)=31-95%; (B)=0-30%) |
| Fc1cc(F)cc(-c2cc(CNC34CC5CC(CC(C5)C3)C4)no2)c1 [Example 33b, N-((5-(3,5-difluorophenyl)isoxazol-3-yl)methyl)adamantan-1-amine] | A (key: (A)=31-95%; (B)=0-30%) |
| FC(F)(F)c1nnc(CNC23CC4CC(CC(C4)C2)C3)o1 [Example 14b, N-((5-(trifluoromethyl)-1,3,4-oxadiazol-2-yl)methyl)adamantan-1-amine] | A (key: (A)=31-95%; (B)=0-30%) |
| CSc1ccc(-c2cc(CNCC34CC5CC(CC(C5)C3)C4)no2)cc1 [Example 40b, 1-((3r,5r,7r)-adamantan-1-yl)-N-((5-(4-(methylthio)phenyl)isoxazol-3-yl)methyl)methanamine] | A (key: (A)=31-95%; (B)=0-30%) |
| C1COC(c2nc(CNC34CC5CC(CC(C5)C3)C4)no2)C1 (stereo not shown) [Example 21b, N-((5-(tetrahydrofuran-2-yl)-1,2,4-oxadiazol-3-yl)methyl)adamantan-1-amine] | A (key: (A)=31-95%; (B)=0-30%) |
